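Growth conditions: 96-well plates. Treatment: test compound, 48 hours, 5 concentrations. Analysis: linear interpolation between bracketing concentrations; unreached endpoints set to highest concentration. At the GI50, growth is halved. TGI is the concentration that stops growth completely.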
Legend:
Assay in all cases: NCI anticancer screen, dose series, 48 h
[1] = system: HOP-62 NSCLC
[2] = system: MALME-3M melanoma
[3] = system: EKVX NSCLC
[4] = system: HT29 colon
[5] = system: U251 CNS
[6] = system: HCC-2998 colon
[7] = system: SN12C renal
[8] = system: RXF 393 renal
[9] = system: SK-OV-3 ovarian
[10] = system: SNB-75 CNS
[11] = system: CCRF-CEM leukemia
[12] = system: TK-10 renal
[13] = system: KM20L2 colon
[14] = system: HCT-116 colon
[15] = system: SK-MEL-2 melanoma
[16] = system: SK-MEL-5 melanoma
[17] = system: NCI-H460 lung
[18] = system: HL-60(TB) leukemia
[19] = system: LXFL 529 NSCLC
[20] = system: NCI-H23 lung
[21] = system: SNB-78 CNS
[22] = system: CAKI-1 renal
[23] = system: NCI-H226 lung
[24] = system: KM12 colon
[25] = system: UACC-257 melanoma
[26] = system: SF-295 CNS
[27] = system: 786-0 renal
[28] = system: NCI-H522 lung
[29] = system: A549 NSCLC
[30] = system: M14 melanoma
[31] = system: M19-MEL melanoma
[32] = system: ACHN renal
[33] = system: IGROV1 ovarian
[34] = system: RPMI-8226 leukemia
[35] = system: OVCAR-8 ovarian
[36] = system: LOX IMVI melanoma
[37] = system: SF-268 CNS
[38] = system: MOLT-4 leukemia
[39] = system: HOP-92 NSCLC
[40] = system: HCT-15 colon
[41] = system: SF-539 CNS
[42] = system: DMS 273 small cell lung
[43] = system: SK-MEL-28 melanoma
[44] = system: SNB-19 CNS
[45] = system: OVCAR-5 ovarian
[46] = system: HOP-18 NSCLC
[47] = system: DLD-1 colon
[48] = system: UO-31 renal
[49] = system: OVCAR-3 ovarian
[50] = system: OVCAR-4 ovarian
[51] = system: UACC-62 melanoma
[52] = system: COLO 205 colon
[53] = system: K-562 leukemia
[54] = system: SR leukemia
[55] = system: DMS 114 small cell lung
[56] = system: SW-620 colon
[57] = system: XF 498 CNS

## CC(=O)O.[Au].c1ccc([PH+](c2ccccc2)c2ccccc2)cc1
[1]
  GI50: 13.7 µM
  TGI: 27.7 µM
[2]
  GI50: 1620 nM
  TGI: 3.15 µM
[3]
  GI50: 3.61 µM
  TGI: 8.56 µM
[4]
  GI50: 11.5 µM
  TGI: 32.5 µM
[5]
  GI50: 2570 nM
  TGI: 7.49 µM
[6]
  GI50: 7 µM
  TGI: 15.2 µM
[7]
  GI50: 2940 nM
  TGI: 8.85 µM
[8]
  GI50: 1420 nM
  TGI: 2.86 µM
[9]
  GI50: 15.8 µM
  TGI: 29.2 µM
[10]
  GI50: 8.1 µM
  TGI: 20.5 µM
[11]
  GI50: 404 nM
  TGI: 2.34 µM
[12]
  GI50: 2920 nM
  TGI: 6.74 µM
[13]
  GI50: 10.3 µM
  TGI: 35 µM
[14]
  GI50: 1720 nM
  TGI: 3.2 µM
[15]
  GI50: 3.24 µM
  TGI: 8.47 µM
[16]
  GI50: 1260 nM
  TGI: 2.9 µM
[17]
  GI50: 17.2 µM
  TGI: 74.7 µM
[18]
  GI50: 57.8 nM
  TGI: 0.266 µM
[19]
  GI50: 1570 nM
  TGI: 2.92 µM
[20]
  GI50: 2360 nM
  TGI: 6.89 µM
[21]
  GI50: 8.06 µM
  TGI: > 70.3 µM
[22]
  GI50: 2270 nM
  TGI: 5.35 µM
[23]
  GI50: 6.59 µM
  TGI: 19.1 µM
[24]
  GI50: 11.7 µM
  TGI: 39.8 µM
[25]
  GI50: 1820 nM
  TGI: 5.68 µM
[26]
  GI50: 2890 nM
  TGI: > 100 µM
[27]
  GI50: 1670 nM
  TGI: 3.27 µM
[28]
  GI50: 526 nM
  TGI: 1.96 µM
[29]
  GI50: 18.8 µM
  TGI: 66.1 µM
[30]
  GI50: 1390 nM
  TGI: 2770 nM
[31]
  GI50: 2670 nM
  TGI: 15.6 µM
[32]
  GI50: 2860 nM
  TGI: 8.53 µM
[33]
  GI50: 2240 nM
  TGI: 6.95 µM
[34]
  GI50: 1320 nM
  TGI: 4.46 µM
[35]
  GI50: 5.45 µM
  TGI: 26.3 µM
[36]
  GI50: 2540 nM
  TGI: 7.98 µM
[37]
  GI50: 3.05 µM
  TGI: 11.5 µM
[38]
  GI50: 1610 nM
  TGI: 4.17 µM
[39]
  GI50: 3.02 µM
  TGI: 5.1 µM
[40]
  GI50: 1560 nM
  TGI: 3.15 µM
[41]
  GI50: 8.6 µM
  TGI: 23.2 µM
[42]
  GI50: 11.3 µM
  TGI: 55.4 µM
[43]
  GI50: 1630 nM
  TGI: 3.66 µM
[44]
  GI50: 4.11 µM
  TGI: 15.8 µM
[45]
  GI50: 14.4 µM
  TGI: 28.6 µM
[46]
  GI50: 2140 nM
  TGI: 3.86 µM
[47]
  GI50: 1900 nM
  TGI: 4.4 µM
[48]
  GI50: 11.1 µM
  TGI: 24.4 µM
[49]
  GI50: 2430 nM
  TGI: 5.52 µM
[50]
  GI50: 2000 nM
  TGI: 5.02 µM
[51]
  GI50: 1470 nM
  TGI: 4.03 µM
[52]
  GI50: 1990 nM
  TGI: 4.73 µM

## Cc1ccc(S(=O)(=O)OC(c2ccc(Cl)cc2Cl)C2OC(=O)c3ccccc32)cc1 (stereo not given)
[1]
  TGI: > 100 µM
[2]
  TGI: > 100 µM
[3]
  TGI: > 100 µM
[4]
  TGI: > 100 µM
[53]
  TGI: > 100 µM
[5]
  TGI: > 100 µM
[7]
  TGI: > 100 µM
[8]
  TGI: > 100 µM
[54]
  TGI: > 100 µM
[11]
  TGI: > 100 µM
[12]
  TGI: > 100 µM
[13]
  TGI: > 100 µM
[55]
  TGI: > 100 µM
[14]
  TGI: > 100 µM
[15]
  TGI: > 100 µM
[16]
  TGI: > 100 µM
[17]
  TGI: > 100 µM
[18]
  TGI: 86.1 µM
[19]
  TGI: > 100 µM
[20]
  TGI: > 100 µM
[21]
  TGI: > 100 µM
[23]
  TGI: > 100 µM
[24]
  TGI: > 100 µM
[26]
  TGI: > 100 µM
[27]
  TGI: > 100 µM
[28]
  TGI: > 100 µM
[29]
  TGI: > 100 µM
[30]
  TGI: > 100000 nM
[31]
  TGI: > 100 µM
[32]
  TGI: > 100 µM
[33]
  TGI: > 100 µM
[34]
  TGI: > 100 µM
[35]
  TGI: > 100 µM
[36]
  TGI: > 100 µM
[56]
  TGI: > 100 µM
[37]
  TGI: > 100 µM
[38]
  TGI: > 100 µM
[40]
  TGI: > 100 µM
[41]
  TGI: > 100 µM
[42]
  TGI: > 100 µM
[57]
  TGI: > 100 µM
[43]
  TGI: > 100 µM
[44]
  TGI: > 100 µM
[45]
  TGI: > 100 µM
[48]
  TGI: 95.6 µM
[49]
  TGI: > 100 µM
[50]
  TGI: > 100 µM
[51]
  TGI: > 100 µM
[52]
  TGI: > 100 µM

## COC(=O)C(=Cc1cc(OC)c(OC)c(OC)c1-c1cc2c(cc1C(C)=O)OCO2)C(=O)OC
[1]
  TGI: 67.1 µM
[2]
  TGI: 78.3 µM
[3]
  TGI: > 211 µM
[4]
  TGI: 77 µM
[53]
  TGI: > 211 µM
[5]
  TGI: 66.4 µM
[6]
  TGI: 70.4 µM
[7]
  TGI: 58.8 µM
[8]
  TGI: 63.7 µM
[9]
  TGI: > 211 µM
[54]
  TGI: > 211 µM
[11]
  TGI: > 211 µM
[12]
  TGI: 187 µM
[13]
  TGI: 62.8 µM
[55]
  TGI: 99.4 µM
[14]
  TGI: 62.5 µM
[15]
  TGI: 61.7 µM
[16]
  TGI: 70.1 µM
[17]
  TGI: > 211 µM
[18]
  TGI: 172 µM
[19]
  TGI: 65.9 µM
[20]
  TGI: 75.9 µM
[22]
  TGI: 108 µM
[23]
  TGI: 100 µM
[24]
  TGI: 70.4 µM
[25]
  TGI: 188 µM
[26]
  TGI: 102 µM
[27]
  TGI: 61.6 µM
[28]
  TGI: 62.2 µM
[29]
  TGI: 165 µM
[31]
  TGI: 75 µM
[32]
  TGI: 100 µM
[33]
  TGI: 134 µM
[34]
  TGI: > 211 µM
[35]
  TGI: > 211 µM
[36]
  TGI: 79.4 µM
[56]
  TGI: 102 µM
[37]
  TGI: 133 µM
[38]
  TGI: > 211 µM
[39]
  TGI: 124 µM
[40]
  TGI: 50.2 µM
[41]
  TGI: 88.2 µM
[42]
  TGI: 69 µM
[57]
  TGI: 59.7 µM
[43]
  TGI: 78.1 µM
[44]
  TGI: 69.6 µM
[45]
  TGI: 74.1 µM
[46]
  TGI: 87.4 µM
[47]
  TGI: 53.7 µM
[49]
  TGI: 56.2 µM
[51]
  TGI: 73.8 µM
[52]
  TGI: 66.8 µM
